Assay [1] has as its target T1, 5-HT2CR (Homo sapiens, UniProt P28335). The assay can be described thus: cell-based.
Assay [2] concerns the target T1, 5-HT2CR. The following applies: agonist mode; partial agonist.
Assay [3] concerns the target T2, 5-HT2AR (Homo sapiens, UniProt P28223). The assay can be described thus: cell-based. The following applies: U2OS, read-out: 5-HT2AR Rmax (internalization).
The target in assay [4] is T2, 5-HT2AR. The assay can be described thus: cell-based. The note with it: U2OS, read-out: 5-HT2AR Rmax (beta-arrestin).
For assay [5], the target named is T1, 5-HT2CR. In words: cell-based. The source holds these as a separate data set.
The target of assay [6] is T3, 5-HT1BR (Homo sapiens, UniProt P28222). The assay can be described thus: cell-based.
The target in assay [7] is T3, 5-HT1BR. In words: cell-based. This is another data set of the same source.
For assay [8], the target named is T3, 5-HT1BR. In words: cell-based. The note with it: CHO-K1, read-out: 5-HT1BR Rmax (cAMP).
The target of assay [9] is T1, 5-HT2CR. The note with it: antagonist mode against 5-HT-induced response; incomplete inhibition.

The structures appear in SMILES notation. Like-named read-outs stand apart in the source and are kept apart here.

T1 sequence (P28335 33-458): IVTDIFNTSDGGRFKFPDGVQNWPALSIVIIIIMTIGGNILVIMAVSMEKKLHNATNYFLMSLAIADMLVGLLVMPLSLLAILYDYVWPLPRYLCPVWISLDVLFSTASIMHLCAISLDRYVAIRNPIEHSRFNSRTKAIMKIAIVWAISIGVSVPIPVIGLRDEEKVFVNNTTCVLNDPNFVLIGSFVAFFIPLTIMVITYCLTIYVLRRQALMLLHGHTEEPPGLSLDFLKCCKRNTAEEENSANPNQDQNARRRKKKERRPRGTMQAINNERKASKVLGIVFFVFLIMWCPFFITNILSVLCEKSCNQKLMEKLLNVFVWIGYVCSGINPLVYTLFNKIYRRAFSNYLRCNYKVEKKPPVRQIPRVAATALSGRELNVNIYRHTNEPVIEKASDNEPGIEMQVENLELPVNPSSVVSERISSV
T3 sequence (P28222 whole entry): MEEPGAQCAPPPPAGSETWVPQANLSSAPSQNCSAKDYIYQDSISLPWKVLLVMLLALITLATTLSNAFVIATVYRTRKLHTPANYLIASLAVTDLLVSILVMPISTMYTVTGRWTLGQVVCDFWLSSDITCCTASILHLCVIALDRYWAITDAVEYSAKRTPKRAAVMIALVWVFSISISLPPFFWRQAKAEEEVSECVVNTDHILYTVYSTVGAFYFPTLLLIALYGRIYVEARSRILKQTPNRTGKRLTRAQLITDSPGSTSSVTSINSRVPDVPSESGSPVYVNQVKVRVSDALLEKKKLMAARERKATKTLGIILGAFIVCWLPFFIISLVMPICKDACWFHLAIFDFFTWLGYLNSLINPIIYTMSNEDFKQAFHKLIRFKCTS
T2 sequence (P28223 whole entry): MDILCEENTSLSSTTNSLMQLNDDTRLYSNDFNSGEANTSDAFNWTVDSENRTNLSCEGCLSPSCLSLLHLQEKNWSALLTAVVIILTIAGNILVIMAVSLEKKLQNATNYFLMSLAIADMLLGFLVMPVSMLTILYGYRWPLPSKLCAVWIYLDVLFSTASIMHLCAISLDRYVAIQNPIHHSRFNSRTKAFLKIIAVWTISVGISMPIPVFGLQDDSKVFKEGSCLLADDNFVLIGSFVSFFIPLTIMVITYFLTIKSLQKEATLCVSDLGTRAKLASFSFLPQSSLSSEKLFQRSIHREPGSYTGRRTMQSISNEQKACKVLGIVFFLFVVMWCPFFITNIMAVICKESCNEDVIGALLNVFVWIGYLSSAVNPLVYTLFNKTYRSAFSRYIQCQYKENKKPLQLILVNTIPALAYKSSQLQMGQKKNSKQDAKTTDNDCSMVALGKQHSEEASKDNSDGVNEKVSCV

Regarding `COc1cc(C(F)(F)F)c(OC)cc1[C@@H]1CCCNC1` [LPH-5, (S)-3-(2,5-dimethoxy-4-(trifluoromethyl)phenyl)piperidine], the EC50 on 5-HT2CR [1] is > 30 µM; on 5-HT2CR [2], 110 [pEC50 6.96 ± 0.07] nM; at 5-HT1BR [6], > 30 µM; at 5-HT1BR [7], 0.87 µM. Also, the Emax is 94 ± 11% on 5-HT2AR [3], 61 ± 11% on 5-HT2AR [4] and 78% on 5-HT1BR [8]. Further, the IC50 against 5-HT2CR [5] is 0.038 µM; against 5-HT2CR [9], 300 [pIC50 6.52 ± 0.08] nM.

The record behind these values is doi:10.1101/2024.04.19.590212v1 (biorxiv, 2024).
